Results as given in patent publication US20130310256A1, “HERBICIDAL COMPOSITIONS COMPRISING 4-AMINO-3-CHLORO-5-FLUORO-6-(4-CHLORO-2-FLUORO-3-METHOXYPHENYL) PYRIDINE-2-CARBOXYLIC ACID OR A DERIVATIVE THEREOF AND VLCFA AND LIPID SYNTHESIS INHIBITING HERBICIDES” (DOW AGROSCIENCES LLC, priority 2008, published 2013).

Tests used:
[1] = test system: ECHCO; test: Example I: postemergence foliar-applied weed control, greenhouse; type: in vivo, Echinochloa colona (L.) Link (junglerice); settings: 275 gai/ha; foliar
Summary of the method: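 Plants grown in loam/sandy loam–calcareous grit soil (80:20) in greenhouse, 14 hr photoperiod, about 29° C. day/26° C. night, treated postemergence at first to fourth true leaf stage. Foliar spray at 187 L/ha with 1.25% (v/v) crop oil concentrate; Compound A dosed on acid equivalent basis, partners on active ingredient basis.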

[2] = test system: CYPES; test: as above; type: in vivo, Cyperus esculentus L. (yellow nutsedge); settings: 275 gai/ha
[3] = test system: XANST; test: Example IV: pre-emergence soil-applied weed control, greenhouse; type: in vivo, Xanthium strumarium L. (common cocklebur); settings: 29 DAA
Excerpt: Seeds or nutlets of the desired test plant species were planted in a soil matrix prepared by mixing a loam soil (32 percent silt, 23 percent clay, and 45 percent sand, with a pH of about 6.5 and an organic matter content of about 1.9 percent) and calcareous grit in an 80 to 20 ratio. The soil matrix was contained in plastic pots with a volume of 1 quart and a surface area of 83.6 square centimeters (cm^2).
Treatments consisted of the benzyl ester of 4-amino-3-chloro-5-fluoro-6-(4-chloro-2-fluoro-3-methoxy-phenyl)pyridine-2-carboxylic acid (compound A) formulated as an SC (suspension concentrate) and various herbicidal components alone and in combination. Forms of compound A were applied on an acid equivalent basis.
Other herbicidal components were applied on an active ingredient basis and included very long chain fatty acid (VLCFA) synthesis-inhibiting and fatty acid/lipid synthesis-inhibiting herbicides alachlor (technical grade material), dimethenamid-P formulated as Outlook®, and S-metolachlor formulated as Dual® II Magnum.
Treatment requirements were calculated based upon the rates being tested, the concentration of active ingredient or acid equivalent in the formulation, and a 12 mL application volume at a rate of 187 L/ha.
For treatments comprised of formulated compounds, measured amounts of compounds were placed individually in 25 mL glass vials and diluted in a volume of 1.25% (v/v) Agri-Dex® crop oil concentrate (COC) to obtain 12× stock solutions. […] Application solutions were prepared by adding an appropriate amount of each stock solution (e.g., 1 mL) and diluted to the appropriate final concentrations with the addition of 10 mL of an aqueous mixture of 1.25% (v/v) COC so that the final spray solutions contained 1.25% (v/v) COC.
For treatments comprised of technical compounds, weighed amounts can be placed individually in 25 mL glass vials and dissolved in a volume of 97:3 (v/v) acetone/DMSO to obtain 12× stock solutions. […] Application solutions can be prepared by adding an appropriate amount of each stock solution (e.g., 1 mL) and diluted to the appropriate final concentrations with the addition of 10 mL of an aqueous mixture of 1.5% (v/v) COC so that the final spray solutions contain 1.25% (v/v) COC. […]
For treatments comprised of formulated and technical compounds, weighed amounts of the technical materials were placed individually in 25 mL glass vials and dissolved in a volume of 97:3 (v/v) acetone/DMSO to obtain 12× stock solutions, and measured amounts of the formulated compounds were placed individually in 25 mL glass vials and diluted in a volume of 1.5% (v/v) COC or water to obtain 12× stock solutions. […]

SMILES: COC[C@H](C)N(C(=O)CCl)c1c(C)csc1C [Dimethenamid-P, (S) 2-chloro-N-(2,4-dimethyl-3-thienyl)-N-(2-methoxy-1-methylethyl)acetamide]
- Visual Weed Control (%) - 20 DAA ECHCO Obs [1]: 70%
- Visual Weed Control (%) - 20 DAA CYPES Obs [2]: 0%
- Visual Weed Control XANST Obs ([3]; 410 gai/ha): 23%
- Visual Weed Control XANST Obs ([3]; 820 gai/ha): 30%
- Visual Weed Control XANST Obs ([3]; 1640 gai/ha): 50%
